Literature values, collected in patent US20180051069A1, “COMPOSITIONS AND METHODS FOR TREATING ALLERGIC INFLAMMATION” (THE GENERAL HOSPITAL CORPORATION, priority 2015, published 2018).
Each block holds one compound with its values, some of them ahead of it.

Assays:
[1] = biological target: alpha-glucosidase amyloglucosidase (Aspergillus niger, UniProt P69328); details: read-out: 50% inhibition
[2] = test system: alpha- or beta-mannosidase
[3] = test system: alpha- or beta-galactosidase
[4] = test system: rat epididymal α-mannosidase
Golgi mannosidase II = biological target: T1, Golgi mannosidase II (Homo sapiens, UniProt Q16706)
T1 sequence (Q16706 1-1144): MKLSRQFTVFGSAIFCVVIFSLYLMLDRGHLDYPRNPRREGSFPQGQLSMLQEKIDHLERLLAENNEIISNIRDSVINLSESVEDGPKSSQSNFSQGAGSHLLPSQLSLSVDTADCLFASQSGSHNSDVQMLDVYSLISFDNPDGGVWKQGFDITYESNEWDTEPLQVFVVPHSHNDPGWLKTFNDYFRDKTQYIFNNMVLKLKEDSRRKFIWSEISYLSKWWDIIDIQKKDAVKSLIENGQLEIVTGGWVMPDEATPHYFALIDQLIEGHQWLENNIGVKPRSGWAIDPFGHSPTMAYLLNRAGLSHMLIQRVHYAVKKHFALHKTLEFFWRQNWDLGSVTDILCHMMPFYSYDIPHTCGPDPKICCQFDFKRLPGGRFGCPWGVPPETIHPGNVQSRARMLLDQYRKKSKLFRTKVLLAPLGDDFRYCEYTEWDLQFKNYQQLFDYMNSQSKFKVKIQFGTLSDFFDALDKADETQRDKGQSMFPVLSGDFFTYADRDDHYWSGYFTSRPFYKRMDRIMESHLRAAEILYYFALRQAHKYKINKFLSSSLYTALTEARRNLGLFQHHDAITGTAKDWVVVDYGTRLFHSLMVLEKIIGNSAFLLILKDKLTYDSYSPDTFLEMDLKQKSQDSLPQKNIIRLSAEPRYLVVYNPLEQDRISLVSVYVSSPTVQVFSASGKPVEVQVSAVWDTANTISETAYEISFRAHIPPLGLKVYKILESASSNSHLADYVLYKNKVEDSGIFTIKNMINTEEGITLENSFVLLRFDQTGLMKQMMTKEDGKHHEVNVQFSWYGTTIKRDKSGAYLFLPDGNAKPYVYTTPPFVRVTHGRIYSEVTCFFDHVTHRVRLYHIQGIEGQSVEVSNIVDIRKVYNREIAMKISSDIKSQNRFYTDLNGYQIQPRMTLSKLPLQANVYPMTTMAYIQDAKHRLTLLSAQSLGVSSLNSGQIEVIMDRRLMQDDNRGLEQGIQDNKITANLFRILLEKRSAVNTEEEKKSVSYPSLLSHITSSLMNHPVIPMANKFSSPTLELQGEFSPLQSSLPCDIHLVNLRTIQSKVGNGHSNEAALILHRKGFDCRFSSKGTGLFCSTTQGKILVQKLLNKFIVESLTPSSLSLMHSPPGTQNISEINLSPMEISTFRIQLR

alpha-glucosidase amyloglucosidase, sequence (P69328 25-640): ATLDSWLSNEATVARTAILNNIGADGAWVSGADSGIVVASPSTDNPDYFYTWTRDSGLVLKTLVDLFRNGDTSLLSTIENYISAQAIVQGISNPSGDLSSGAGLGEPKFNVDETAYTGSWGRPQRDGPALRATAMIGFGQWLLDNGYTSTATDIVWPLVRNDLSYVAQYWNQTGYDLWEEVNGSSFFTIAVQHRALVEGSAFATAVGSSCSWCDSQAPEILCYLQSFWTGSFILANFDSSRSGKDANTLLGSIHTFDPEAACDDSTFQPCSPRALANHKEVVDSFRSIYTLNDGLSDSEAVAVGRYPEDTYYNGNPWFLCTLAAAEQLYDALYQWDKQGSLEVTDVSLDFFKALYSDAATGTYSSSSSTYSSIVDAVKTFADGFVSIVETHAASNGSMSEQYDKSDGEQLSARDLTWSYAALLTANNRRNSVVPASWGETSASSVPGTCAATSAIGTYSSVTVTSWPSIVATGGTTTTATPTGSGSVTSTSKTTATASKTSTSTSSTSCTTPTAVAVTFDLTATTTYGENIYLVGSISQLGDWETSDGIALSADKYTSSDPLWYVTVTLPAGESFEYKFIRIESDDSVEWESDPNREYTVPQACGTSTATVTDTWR

effect on mannosidase I (mannosidase I): inhibits
Compound: O=C1N[C@@H]2[C@@H](O)[C@@H](O)[C@H](O)[C@@H](CO)N2C1=O [Kifunensine]
concentration causing complete shift of N-linked oligosaccharides from complex chains to Man9(GlcNAc)2 structures (cultured mammalian cells; added to cultured mammalian cells): ≥ 1 µg/mL

inhibition of rat liver mannosidase I (rat liver mannosidase I): inhibitor
Compound: OC[C@H]1NC[C@@H](O)[C@@H](O)[C@@H]1O [Deoxymannojirimycin]
effect on synthesis of N-linked oligosaccharides (cultured mammalian cells; intact cells): blocked the synthesis of complex types of N-linked oligosaccharides

The remaining lines, values behind:

Compound: OC[C@@H]1[C@@H](O)[C@H](O)[C@H]2[C@@H](O)CCN21 [Australine]
IC50 [1]: 5.8 µM
inhibition of beta-glucosidase (beta-glucosidase): does not inhibit
inhibition of alpha- or beta-mannosidase [2]: does not inhibit
inhibition of alpha- or beta-galactosidase [3]: does not inhibit

Compound: CS[C@@H]1[C@@H](N)[C@@H](O)[C@@H](O)[C@H]1O [Mannostatin A]
inhibition of rat epididymal α-mannosidase [4]: reported to be an inhibitor

Compound: O[C@H]1[C@H](O)[C@@H](O)CN2CC[C@H](O)[C@H]12 [Castanospermine]
inhibition of alpha-glucosidase activities (alpha-glucosidase): inhibits

Compound: O[C@H]1[C@H]2[C@H](O)CCCN2C[C@H]1O [Swainsonine]
inhibition of Golgi mannosidase II (Golgi mannosidase II): potent inhibitor
effect on mannosidase I (mannosidase I): no effect
